Earlier results in US20240164375A1, “LIQUID DISINFECTANT COMPOSITION AND USE THEREOF” (HYPRED, priority 2002, published 2024).

Settings: 25° C.

pKa: 4.85
SMILES: CCCCCCCC(=O)O [octanoic acid]
